Results as given in ChEMBL document CHEMBL1145045 (J Med Chem, 2003).

What follows are compounds tested against Major prion protein (assay: Half maximal inhibition of Prion protein PrPsc formation was assayed in ScN2a cells).
Format: cell-based

SMILES | EC50 [µM]
CN(C)CCCN1c2ccccc2Sc2ccc(Cl)cc21 [CHLORPROMAZINE] | 2
CN(C)CCCN1c2ccccc2Sc2ccccc21 [PROMAZINE] | 5
CC(CN1c2ccccc2Sc2ccccc21)N(C)C (stereo not drawn) [PROMETHAZINE] | 8
CC(=O)c1ccc2c(c1)N(CCCN(C)C)c1ccccc1S2 [ACEPROMAZINE] | 5
c1ccc2nc3ccccc3nc2c1 [PHENAZINE] | > 10
O=C(CCCN1CCC(O)(c2ccc(Cl)cc2)CC1)c1ccc(F)cc1 [HALOPERIDOL] | > 10
NC(=O)N1c2ccccc2C=Cc2ccccc21 [CARBAMAZEPINE] | > 10
CCN(CC)CCCC(C)Nc1ccnc2cc(Cl)ccc12 (stereo not drawn) [CHLOROQUINE] | 4
